Literature values, collected in patent US4698328A, “Method of increasing bone mass” (The General Hospital Corporation, priority 1986, dated 1987).

Settings: osteoporosis in humans; Reeve et al. 1980

Substance: hPTH (1-34): fragment of human parathyroid hormone: first thirty-four amino acid residues (SVSEIQLMHNLGKHLNSMERVEWLRKKLQDVHNF; Parathyroid hormone; UniProt P01270 32-65, looked up, fragment)
- axial trabecular bone: considerable increase
- calcium retention, and hence total bone mass: improved in only about half of these patients
